This is an account of results in patent publication EP0066456B1, “N-substituted azaheterocyclic carboxylic acids and their esters” (SMITHKLINE BECKMAN CORPORATION, priority 1981, dated 1982).

The test system of the test is contralateral rotation in rats induced by unilateral injection of GABA into the pars reticulata of the substantia nigra. The experiment in a line: potentiation of GABA-induced contralateral rotation in rats (unilateral GABA injection into pars reticulata of substantia nigra). In kind it is in vivo. The conditions noted are these: systemic administration, doses from 2.5 to 40.0 mg/kg, I.P. The method, then: Compounds active in the in vitro test described above are tested by systemic administration for their ability to penetrate the central nervous system and potentiate the rotation induced by GABA.

`Cl.O=C(O)C1CCCN(CCC=C(c2ccccc2)c2ccccc2)C1` (stereo not shown) [1 - (4,4 - diphenyl - 3 - butenyl) - 3 - piperidinecarboxylic acid hydrochloride]: the “potentiation of contralateral rotation induced by GABA” value was “significantly active”.
